Assay results from US7897789B2, “Vitamin D receptor modulators” (Eli Lilly and Company, priority 2003, dated 2011).
“And” between values parts separate entries of the source, which are not always exact repeats. Equal values may be shown once. Read-outs that look alike come from different tables or passages of the source.

How the values were obtained:
rat osteocalcin promoter = assay: OCN (osteocalcin) promoter assay; assay type: cell-based; details: RG-15 (ROS 17/2.8) cells
Method: 3. The OCN (Osteocalcin) Promoter Assay
The OCN Promoter Assay is an indicator and marker for osteoporosis. […] Preferred assay results are less than 50 nM.
(3) Materials and Method for the OCN Promoter Assay:
The activation of osteocalcin by VDR ligands was evaluated in a rat osteoblast-like cell line RG-15 (ROS 17/2.8) stably expressing rat osteocalcin promoter fused with luciferase reporter gene. […] Confluent RG-15 cells maintained in DMEM/F-12 medium (3:1) containing 5% FBS, 300 μg/ml G418 and at 37° C. under 5% CO2/95% air atmosphere were trypsinized (0.25% trypsin) and plated into white opaque 96-well cell culture plates (25000 cells/well). After 24 hr, cells (in DMEM/F-12 medium+2% FBS) were treated with various concentrations of compounds, dissolved in DMSO. The final DMSO concentration remained at 0.01% (v/v). After 48 hr treatment, the medium was removed, cells were lysed with 50 μl of lysis buffer (From Luciferase reporter assay system, Roche Diagnostics, Indianapolis, Ind.) and assayed for luciferase activity using the Luciferase Reporter Gene Assay kit from Boehringer Mannheim as per manufacturer's specifications.

DBF mice = assay: Mouse hypercalcemia assay; details: oral gavage for 6 days
Text: The Mouse Hypercalcemia Assay
The Mouse Hypercalcemia Assay is a six day hypercalcemia test for toxicity and selectivity.
(4) Materials and Method for the Mouse Hypercalcemia Assay:
Weanling, virus-antibody-free, five to six weeks old female DBF mice (Harlan, Indianapolis, Ind.) are used for all the studies. Animals are allowed to acclimate to local vivarium conditions for 2 days. […] The animals then are divided into groups with 4-5 mice per group. Different doses of test compounds prepared in 10% Ethanol and 90% sesame oil are administered to mice orally via gavage for 6 days. 1α-25(OH)2D3 0.5 μg/kg/d was also given to one group of mice as the positive control. […] Raw data of group differences is assessed by analysis of variance (ANOVA) using Fisher's protected least significant difference (PLSD) where the significance level was P<0.05.

VDR = biological target: T1, VDR (Homo sapiens, UniProt P11473); assay: Caco-2 cell co-transfection assay (VDR CTF); assay type: cell-based; details: Caco-2 cells, pGal4-VDR-LBD luciferase co-transfection; Table 1
T1 construct: the receptor expression vector pGal4-VDR-LBD (10 ng); expressed in transfected cells; host or cells: Caco-2 cells
T1 sequence (P11473 127-423 limits assumed): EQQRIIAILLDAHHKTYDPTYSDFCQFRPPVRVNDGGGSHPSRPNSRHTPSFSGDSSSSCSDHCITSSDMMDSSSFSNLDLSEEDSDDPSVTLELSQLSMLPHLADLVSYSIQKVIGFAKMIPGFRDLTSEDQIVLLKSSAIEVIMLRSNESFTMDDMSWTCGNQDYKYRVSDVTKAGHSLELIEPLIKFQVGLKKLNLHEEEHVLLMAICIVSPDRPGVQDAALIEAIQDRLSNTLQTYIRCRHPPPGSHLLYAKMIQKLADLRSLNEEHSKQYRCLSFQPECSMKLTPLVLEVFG
Method: 2. The Caco-2 Cell Co-Transfection Assay:
The Caco-2 cell assay is an indicator for the undesirable condition of hypercalcemia. This co-transfection assay is a surrogate assay for in vivo calcemic activity of VDR ligands. […] Preferred assay results are greater than 1000 nM.
(2) Materials and Method for The Caco-2 Cell Assay:
Caco-2 cells, grown in phenol red free, DMEM (Invitrogen, Carlsbad, Calif.) containing 10% charcoal-stripped FCS (Hyclone, Logan, Utah), were transfected with Fugene 6 reagent (Roche Diagnostics, Indianapolis, Ind.). Cells (5000/well) were plated 18 h before transfection in a 96 well plate. The Cells were transfected with Gal4-responsive reporter pFRLuc (150 ng, Stratagene, La Jolla Calif.) and the receptor expression vector pGal4-VDR-LBD (10 ng), along with Fugene 6 reagent (0.2 μl/well). The DNA-Fugene complex was formed by incubating the mixture for 30 min at room temperature. The cells were transfected in triplicate for 5 h, and treated with various concentrations of VDR ligands (form 0.01 nM to 10,000 nM concentration range) 18 h post-transfection. The luciferase activity was quantified using Steady-Glo reagent kit (Promega, Madison, Wis.) as per manufacturer's specifications.

KERtr cells = assay: Keratinocyte proliferation assay; assay type: cell-based; details: Homo sapiens
Method: 5. The Keratinocyte Proliferation Assay
This Assay is indicative for the treatment of psoriasis.
(5) The Keratinocyte Proliferation Assay:
KERtr cells (Human skin keratinocyte transformed with a retrovirus vector, obtained from ATCC) were plated in 96-well flat-bottomed plates (3000 cells/well) in 100 μl keratinocyte serum free medium supplemented with bovine pituitary extract in the absence of EGF (Life Technologies, Rockville, Md.) and incubated at 37° C. for two days. The cells were treated with various concentrations of VDR ligands (ten-fold serial dilution from 10,000 nM to 0.1 nM in triplicate), dissolved in 100 μl keratinocyte serum free medium supplemented with bovine pituitary extract in the absence of EGF and incubated at 37° C. for 72 hr. […] Potency values (IC50) values were determined as the concentration (nM) of compound that elicited a half-maximal response.

RXR-VDR heterodimer = biological target: T2, RXR-VDR heterodimer (Homo sapiens, UniProt P11473); assay: RXR-VDR heterodimerization assay (SaOS-2 cells); assay type: cell-based; details: Gal4-RXR / VP16-VDR-LBD luciferase reporter, Table 1
T2 construct: Add the Gal4-RXR-DEF and VP16-VDR-LBD; expressed in transfected cells; host or cells: SaOS-2 cells
T2 sequence (P11473 127-423 limits assumed): T1 sequence (P11473 127-423 limits assumed)
T2 sequence (P19793 201-462 partner limits assumed): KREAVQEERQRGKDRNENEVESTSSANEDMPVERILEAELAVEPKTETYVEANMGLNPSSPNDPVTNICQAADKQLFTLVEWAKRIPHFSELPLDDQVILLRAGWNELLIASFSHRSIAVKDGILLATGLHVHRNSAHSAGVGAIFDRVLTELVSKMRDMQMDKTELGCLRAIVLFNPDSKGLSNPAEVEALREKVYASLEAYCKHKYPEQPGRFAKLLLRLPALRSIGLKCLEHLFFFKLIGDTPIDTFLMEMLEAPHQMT
Method: 1. The RXR-VDR HeterodimerAssay:
This assay provides the VDR activity of a test compound.
(1) Materials and Method for RXR-VDR Heterodimerization Assay:
Luciferase Assay Reagent: • Use Steady-Glo Luciferase Reagent from Promega (Cat #E2550) Consists of: a. E2533 Assay Substrate, lyopholized product and b. E2543 Assay Buffer. • Thaw at room temperature • Store Cell Harvesting Aspirate media from culture flask, rinse cells with HBSS and aspirate. Add trypsin and incubate. When cells appear detached, resuspend cells in growth media. Transfer into a new flask with fresh growth media for passaging the cells. Plate well plates and two extra plates A. Cell Count Mix the cell suspension using pipette Use Hematocytometer to count the cells Load cell suspension onto the hemocytometer chamber Count cells. […] In sterile flask add cell suspension to plating media. Mix. Add cells/well. Place the cells in the incubator. Cells should be about 75% confluent prior to transfection. DAY 2: Transfection Step 1: DNA and Media Add plain DMEM media to tubes for mixing the DNA Add the Reporter gene pFR-LUC Add the Gal4-RXR-DEF and VP16-VDR-LBD Step 2: FuGENE and Media Prepare plain DMEM media in a ubes for mixing FuGENE Add FuGENE 6 Transfection Reagent Incubate Step 3: FuGENE, DNA and Media Complex Add FuGENE Media complex from step 2 to DNA Media complex from step 1 Incubate Step 4: FuGENE, DNA and Media Complex to-well plate Add FuGENE-DNA-Media complex from step 3 to each plate Incubate. […] Day 4: Luciferase Assay Read the plates after drug treatment Remove part of media from all the wells and leave remainder Add Steady-Glo Luciferase Reagent mixture/wells Incubate Count each well using a Luminescence counter, Top Count NXT by Packard
Set a delay between plates to reduce the background.

[1] = Rattus norvegicus, 48 h, 48 hr treatment, Table 1
[2] = Rattus norvegicus, comparison compounds, Table 3
[3] = 72 h, BrdU incorporation, Table 2, read-out: Kera. Prolif. IC50
[4] = comparison compounds, Table 4, read-out: Kera. Prolif. IC50
[5] = serum ionized calcium 6 hours after last dosing, Table 1

Row | SMILES | EC50 (rat osteocalcin promoter; [1]) [nM] | EC50 (VDR) [nM] | IC50 (KERtr cells; [3]) [nM] | EC50 (RXR-VDR heterodimer) | also measured
1 | CCOC(=O)c1cc2cc(C(CC)(CC)c3ccc(OCC4(C(C)(C)C)OCCO4)c(C)c3)ccc2s1 [Ex 23, 5-{1-[4-(2-tert-Butyl-[1,3]dioxolan-2-ylmethoxy)-3-methyl-phenyl]-1-ethyl-propyl}-benzo[b]thiophene-2-carboxylic acid ethyl ester] | 161 |  |  |  | 
2 | CCC(CC)(c1ccc(OCC(=O)C(C)(C)C)c(C)c1)c1ccc(OC[C@H](O)C(C)(C)C)c(C)c1 [EE, reference compound] |  |  |  |  | EC50 (rat osteocalcin promoter; [2]): 341 nM; Mouse Hypercal (DBF mice; comparison compounds, Table 3): 1000 µg/kg/day
3 | CCC(CC)(c1ccc(OCC(=O)C(C)(C)C)c(C)c1)c1cc2ccc(C(=O)N(C)C)cc2s1 [Ex. 9, 2-{1-[4-(3,3-Dimethyl-2-oxo-butoxy)-3-methyl-phenyl]-1-ethyl-propyl}-benzo[b]thiophene-6-carboxylic acid dimethylamide] | 41 | 1270 | 1000 |  | EC50 (rat osteocalcin promoter; 48 hr treatment, Table 1): 35 nM
4 | CCC(CC)(c1ccc(OCC(O)C(C)(C)C)c(C)c1)c1ccc2cc(C(=O)N(C)C)sc2c1 (stereo not drawn) [Ex. 4, 6-{1-ethyl-1-[4-(2-hydroxy-3,3-dimethyl-butoxy)-3-methyl-phenyl]-propyl}-benzo[b]thiophene-2-carboxylic acid dimethylamide] | 20 | 555 |  |  | EC50 (rat osteocalcin promoter; 48 hr treatment, Table 1): 15 nM
5 | CCC(CC)(c1ccc(OCC(O)C(C)(C)C)c(C)c1)c1cc2ccc(C(=O)N(C)C)cc2s1 (stereo not drawn) [Ex. 10, 2-{1-Ethyl-1-[4-(2-hydroxy-3,3-dimethyl-butoxy)-3-methyl-phenyl]-propyl}-benzo[b]thiophene-6-carboxylic acid dimethylamide] | 24 | 690 | 573 | 323 nM | EC50 (rat osteocalcin promoter; 48 hr treatment, Table 1): 18 nM
6 | CCC(CC)(c1ccc(OCC(=O)C(C)(C)C)c(C)c1)c1ccc(OCC(=O)C(C)(C)C)c(C)c1 [DD, reference compound] |  |  |  |  | EC50 (rat osteocalcin promoter; [2]): 31.1 nM; Mouse Hypercal (DBF mice; comparison compounds, Table 3): 1000 µg/kg/day; IC50 (KERtr cells; [4]): 1060 nM
7 | CCC(CC)(c1ccc(OCC(=O)C(C)(C)C)c(C)c1)c1ccc2sc(C(=O)O)cc2c1 [Ex. 13, 5-{1-[4-(3,3-dimethyl-2-oxo-butoxy)-3-methyl-phenyl]-1-ethyl-propyl}-benzo[b]thiophene-2-carboxylic acid] |  | 994 |  | 488 nM and 111 nM | Mouse Hypercal (DBF mice; [5]): >300 µg/kg/day
8 | CCC(CC)(c1ccc(OCC(O)C(C)(C)C)c(C)c1)c1ccc2sc(C(=O)O)cc2c1 (stereo not drawn) [Ex 14, 5-{1-ethyl-1-[4-(2-hydroxy-3,3-dimethyl-butoxy)-3-methyl-phenyl]-propyl}-benzo[b]thiophene-2-carboxylic acid] | 6 | 941 |  |  | 
9 | CCC(CC)(c1ccc(OCC(O)C(C)(C)C)c(C)c1)c1cc2ccc(C(=O)NCC(=O)O)cc2s1 (stereo not drawn) [Ex. 12, [(2-{1-Ethyl-1-[4-(2-hydroxy-3,3-dimethyl-butoxy)-3-methyl-phenyl]-propyl}-benzo[b]thiophene-6-carbonyl)-amino]-acetic acid] | 0.3 | 137 | 1 | 19 nM and 2 nM | 
10 | CCC(CC)(c1ccc(OCC(=O)C(C)(C)C)c(C)c1)c1ccc2sc(C(=O)NCC(=O)O)cc2c1 [Ex 15, [(5-{1-[4-(3,3-dimethyl-2-oxo-butoxy)-3-methyl-phenyl]-1-ethyl-propyl}-benzo[b]thiophene-2-carbonyl)-amino]-acetic acid] |  |  |  | 539 nM and 63 nM | Mouse Hypercal (DBF mice; [5]): <1000 µg/kg/day
11 | CCC(CC)(c1ccc(OCC(O)CO)c(C)c1)c1ccc(OCC(O)C(C)(C)C)c(C)c1 (stereo not drawn) [BB, 3-(4-{1-Ethyl-1-[4-(2-hydroxy-3,3-dimethyl-butoxy)-3-methyl-phenyl]-propyl}-2-methyl-phenoxy)-propane-1,2-diol, reference compound] |  |  |  |  | EC50 (rat osteocalcin promoter; [2]): 8.24 nM; Mouse Hypercal (DBF mice; comparison compounds, Table 3): 20 µg/kg/day; IC50 (KERtr cells; [4]): 10 nM
12 | CCC(CC)(c1ccc(OCC(O)C(C)(C)C)c(C)c1)c1ccc2sc(C(=O)NCC(=O)O)cc2c1 (stereo not drawn) [Ex 16, [(5-{1-ethyl-1-[4-(2-hydroxy-3,3-dimethyl-butoxy)-3-methyl-phenyl]-propyl}-benzo[b]thiophene-2-carbonyl)-amino]-acetic acid] |  | 938 | 384 | 254 nM and 108 nM | 
13 | CCC(CC)(c1ccc(OCC(=O)C(C)(C)C)c(C)c1)c1cc2ccc(C(=O)O)cc2s1 [Ex 7, 2-{1-[4-(3,3-dimethyl-2-oxo-butoxy)-3-methyl-phenyl]-1-ethyl-propyl}-benzo[b]thiophene-6-carboxylic acid] | 1 | 791 | 1000 |  | Mouse Hypercal (DBF mice; [5]): >300 µg/kg/day
14 | CCC(CC)(c1ccc(OCC(=O)C(C)(C)C)c(C)c1)c1cc2cc(OS(C)(=O)=O)ccc2s1 [Ex 24, methanesulfonic acid 2-{1-[4-(3,3-dimethyl-2-oxo-butoxy)-3-methyl-phenyl]-1-ethyl-propyl}-benzo[b]thiophen-5-yl ester] | 215 |  | 232 | 695 nM | 
15 | CCC(O)(CC)COc1ccc(C(CC)(CC)c2cc3ccc(C(=O)O)cc3s2)cc1C [Ex 22, 2-{1-Ethyl-1-[4-(2-ethyl-2-hydroxy-butoxy)-3-methyl-phenyl]-propyl}benzo[b]thiophene-6-carboxylic acid] |  | 1060 | 154 | 458 nM and 139 nM | 
